Laboratory results: patent US10385085B2, “Crystal forms of sialic acid or salt or solvate thereof” (Ultragenyx Pharmaceutical Inc., priority 2015, dated 2019)
Values joined by “and” are separate entries in the source; they are usually repeats but may differ in a detail not shown here. Equal values may be shown once.

How the values were obtained:
Format in all cases: physicochemical
[1] = 7 day stress stability, chemical stability by HPLC; details: for Sialic acid Area % (HPLC): two injections
Description: The chemical purity was measured on an Agilent HP1100 HPLC system fitted with an Agilent variable wavelength UV detector. Samples were prepared by dissolving in diluent at a concentration of 1 mg/mL before being analysed under the following HPLC conditions:
(§1) The selected Forms (5, 3 and 2) were fully characterized by PLM, XRPD, ^1H NMR and IR spectroscopy, DSC, TG/DTA, GVS (with post-GVS XRPD), Karl Fischer titration for water content and HPLC analysis for purity. All of these forms with the addition of Form 1 were also placed under a stress-stability test, at three different conditions for one week (ambient conditions, 40° C. and 75% relative humidity, 80° C.). In addition to this, an approximate solubility test was conducted on the different solid forms using a solvent addition method.
(§2) All four Forms (1, 2, 3 and 5) were placed under 7 day stress stability testing. This was carried out by placing the four forms under three different conditions for one week. Their physical stability was then analyzed by comparing the diffractograms and the chemical stability was checked by HPLC.

[2] = PLM (morphology) of the solid forms
[3] = Thermogravimetric/Differential Thermal Analysis (TG/DTA)
Description: Approximately, 10 mg of material was weighed into an open aluminium pan and loaded into a simultaneous thermogravimetric/differential thermal analyser (TG/DTA) and held at room temperature. The sample was then heated at a rate of 10° C./min from 25° C. to 300° C. during which time the change in sample weight was recorded along with any differential thermal events (DTA). Nitrogen was used as the purge gas, at a flow rate of 300 cm^3/min.

[4] = Approximate aqueous solubility of the solid forms (solvent addition method)
Description: as §1
Approximately 50 mg of each form (1, 2, 3 and 5) was weighed into a 2 ml vial. 20 μl aliquots of deionized water was added to each vial until complete dissolution of the solid was observed. The volume was noted down and the approximate water solubility calculated.

[5] = Gravimetric Vapour Sorption (GVS) with post-GVS XRPD
Description: Approximately 10-20 mg of sample was placed into a mesh vapour sorption balance pan and loaded into an IGASorp Moisture Sorption Analyser balance by Hiden Analytical. The sample was subjected to a ramping profile from 40-90% relative humidity (RH) at 10% increments, maintaining the sample at each step until a stable weight had been achieved (98% step completion). After completion of the sorption cycle, the sample was dried using the same procedure to 0% RH, and finally taken back to the starting point of 40% RH. The weight change during the sorption/desorption cycles were plotted, allowing for the hygroscopic nature of the sample to be determined.

[6] = Differential Scanning Calorimetry (DSC)
Description: Approximately, 5 mg of material was weighed into an aluminium DSC pan and sealed non-hermetically with a pierced aluminium lid. The sample pan was then loaded into a Seiko DSC6200 (equipped with a cooler) cooled and held at 25° C. Once a stable heat-flow response was obtained, the sample and reference were heated to 210° C. at a scan rate of 10° C./min and the resulting heat flow response monitored. Nitrogen was used as the purge gas, at a flow rate of 50 cm^3/min.

[7] = 7 day stress stability, physical form by XRPD
Description: XRPD analysis was carried out on a Panalytical X′pert Pro, scanning the samples between 3 and 35° […]. The material was gently ground and loaded onto a multi well plate with Kapton or mylar polymer film to support the sample. The multi well plate was then loaded into a Panalytical diffractometer running in transmission mode and analysed, using the following experimental conditions.
as §1, §2

HPLC-UV chemical purity = details: summary Table 13
Description: The chemical purity was measured on an Agilent HP1100 HPLC system fitted with an Agilent variable wavelength UV detector. Samples were prepared by dissolving in diluent at a concentration of 1 mg/mL before being analysed under the following HPLC conditions: […]

[8] = stability under ambient conditions

Chemical stability ([1]; 1 week stress test, conditions studied): good chemical stability
Sialic acid Area % (HPLC) ([1]; after 1 week under 40° C., 75% RH): 99.405% and 99.360%
Acetic acid Area % (HPLC) ([1]; after 1 week under 80° C.): 0.075% and 0.072%
Sodium Pyruvate Area % (HPLC) ([1]; after 1 week under 80° C.): 0.076% and 0.077%
Sialic acid Area % (HPLC) ([1]; after 1 week under 80° C.): 99.348% and 99.372%
Sialic acid Area % (HPLC) ([1]; after 1 week under ambient conditions): 99.561% and 99.605%
HPLC purity of recovered samples ([1]; after 1 week, all three conditions (ambient; 40° C./75% RH; 80° C.)): higher than 99.4%
Area % Acetic acid (HPLC) ([1]; stability under 40° C., 75% RH): 0.000%
Area % N-acetyl-D-glucosamine (HPLC) ([1]; stability under 40° C., 75% RH): 0.000%
Area % N-acetyl-D-mannosamine (HPLC) ([1]; stability under 40° C., 75% RH): 0.000%
Area % Sodium Pyruvate (HPLC) ([1]; stability under 40° C., 75% RH): 0.000%
Area % Acetic acid (HPLC) ([1]; stability under 80° C.): 0.000%
Area % N-acetyl-D-glucosamine (HPLC) ([1]; stability under 80° C.): 0.000%
Area % N-acetyl-D-mannosamine (HPLC) ([1]; stability under 80° C.): 0.000%
Area % Sialic acid (HPLC) ([1]; stability under 80° C.): 99.601% and 99.566%
Area % Sodium Pyruvate (HPLC) ([1]; stability under 80° C.): 0.000% and 0.044%
Area % Acetic acid (HPLC) [1, 8]: 0.000%
Area % N-acetyl-D-glucosamine (HPLC) [1, 8]: 0.000%
Area % N-acetyl-D-mannosamine (HPLC) [1, 8]: 0.000%
Area % Sodium Pyruvate (HPLC) [1, 8]: 0.000%
PLM (morphology), particle size [2]: <30 μm
PLM (morphology) ([2]; particle shape): Small needles
TGA Decomposition temperature [3]: at 178.5 °C
Approximate solubility ([4]; aqueous): 105.0 mg/mL
Aqueous Solubility, Solubility in g/L ([4]; deionized water, approximate, solvent addition): 105 g/L
DVS (hygroscopicity) [5]: Goes to form 1
Hygroscopicity (GVS) [5]: slightly hygroscopic
XRPD post DVS [5]: change
Polymorphic form after GVS (XRPD) ([5]; material reclaimed after GVS run): converted to Form 1
DVS, RH at which the form goes to form 1 ([5]; relative humidity): RH >50%
DSC (thermal events) Endotherm [6]: 181.0° ° C.
Physical form (XRPD) after stress ([7]; 1 week at 40° C./75% RH): converts to Form 1
Physical form (XRPD) after stress ([7]; 1 week at 80° C.): stable
Physical form (XRPD) after stress ([7]; 1 week under ambient conditions): stable
Stability - XRPD post Stability ([7]; at 80° C.): Form 2 at 80 °C
Stability - XRPD post Stability ([7]; at RT): Form 1 + 2 at RT
HPLC (purity) (HPLC-UV chemical purity): 99.70% and 99.80%
Compound: CC(=O)N[C@H]1[C@H]([C@H](O)[C@H](O)CO)OC(O)(C(=O)O)C[C@@H]1O (stereo partly shown) [Form 2, N-acetylneuraminic acid]
